{"source": "paper PMC12281424", "about": "“A Rac-specific competitive inhibitor of guanine nucleotide binding reduces metastasis in triple-negative breast cancer” (Cell Reports Medicine, 2025)", "key": {"[1]": {"target": "Protein Tyrosine Kinase, LCK (Homo sapiens, UniProt P06239)", "sequence (P06239 whole entry)": "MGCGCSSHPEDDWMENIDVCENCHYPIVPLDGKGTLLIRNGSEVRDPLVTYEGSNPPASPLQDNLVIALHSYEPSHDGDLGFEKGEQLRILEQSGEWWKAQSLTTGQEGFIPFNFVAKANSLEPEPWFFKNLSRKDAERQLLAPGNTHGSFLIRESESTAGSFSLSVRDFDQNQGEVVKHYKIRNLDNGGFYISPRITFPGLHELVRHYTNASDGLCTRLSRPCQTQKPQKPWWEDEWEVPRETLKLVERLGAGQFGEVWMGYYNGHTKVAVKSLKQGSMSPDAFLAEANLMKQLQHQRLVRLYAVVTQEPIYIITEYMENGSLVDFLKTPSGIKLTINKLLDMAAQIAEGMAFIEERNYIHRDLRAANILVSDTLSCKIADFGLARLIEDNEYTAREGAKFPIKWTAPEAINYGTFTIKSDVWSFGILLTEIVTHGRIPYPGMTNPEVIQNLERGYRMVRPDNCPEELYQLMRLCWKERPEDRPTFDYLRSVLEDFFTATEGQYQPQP", "test": "Safety screen", "format": "biochemical", "experimental": "(§1) The kinase profiler was performed by the company Eurofins (Discovery, Panlab and Cerep)."}, "[2]": {"target": "Histamine H2 (Homo sapiens, UniProt P25021)", "test": "Safety screen", "format": "binding", "experimental": "(§2) Blood cell counts, kinase profiler, safety screen, bacterial cytotoxicity, Ames, micronucleus assays were performed by the company Eurofins (France). The kinase profiler was performed by the company Eurofins (Discovery, Panlab and Cerep)."}, "[3]": {"target": "IKKα(h) (Homo sapiens, UniProt O15111)", "test": "Kinase Profiler", "format": "biochemical", "experimental": "as §2"}, "[4]": {"target": "RIPK1(h) (Homo sapiens, UniProt Q13546)", "test": "Kinase Profiler", "format": "biochemical", "experimental": "as §1"}, "[5]": {"target": "PKCη(h) (Homo sapiens, UniProt P24723)", "test": "Kinase Profiler", "format": "biochemical", "experimental": "as §1"}, "[6]": {"target": "IRAK1(h) (Homo sapiens, UniProt P51617)", "test": "Kinase Profiler", "format": "biochemical", "experimental": "as §2"}, "[7]": {"target": "TTBK2(h) (Homo sapiens, UniProt Q6IQ55)", "sequence (Q6IQ55 whole entry)": "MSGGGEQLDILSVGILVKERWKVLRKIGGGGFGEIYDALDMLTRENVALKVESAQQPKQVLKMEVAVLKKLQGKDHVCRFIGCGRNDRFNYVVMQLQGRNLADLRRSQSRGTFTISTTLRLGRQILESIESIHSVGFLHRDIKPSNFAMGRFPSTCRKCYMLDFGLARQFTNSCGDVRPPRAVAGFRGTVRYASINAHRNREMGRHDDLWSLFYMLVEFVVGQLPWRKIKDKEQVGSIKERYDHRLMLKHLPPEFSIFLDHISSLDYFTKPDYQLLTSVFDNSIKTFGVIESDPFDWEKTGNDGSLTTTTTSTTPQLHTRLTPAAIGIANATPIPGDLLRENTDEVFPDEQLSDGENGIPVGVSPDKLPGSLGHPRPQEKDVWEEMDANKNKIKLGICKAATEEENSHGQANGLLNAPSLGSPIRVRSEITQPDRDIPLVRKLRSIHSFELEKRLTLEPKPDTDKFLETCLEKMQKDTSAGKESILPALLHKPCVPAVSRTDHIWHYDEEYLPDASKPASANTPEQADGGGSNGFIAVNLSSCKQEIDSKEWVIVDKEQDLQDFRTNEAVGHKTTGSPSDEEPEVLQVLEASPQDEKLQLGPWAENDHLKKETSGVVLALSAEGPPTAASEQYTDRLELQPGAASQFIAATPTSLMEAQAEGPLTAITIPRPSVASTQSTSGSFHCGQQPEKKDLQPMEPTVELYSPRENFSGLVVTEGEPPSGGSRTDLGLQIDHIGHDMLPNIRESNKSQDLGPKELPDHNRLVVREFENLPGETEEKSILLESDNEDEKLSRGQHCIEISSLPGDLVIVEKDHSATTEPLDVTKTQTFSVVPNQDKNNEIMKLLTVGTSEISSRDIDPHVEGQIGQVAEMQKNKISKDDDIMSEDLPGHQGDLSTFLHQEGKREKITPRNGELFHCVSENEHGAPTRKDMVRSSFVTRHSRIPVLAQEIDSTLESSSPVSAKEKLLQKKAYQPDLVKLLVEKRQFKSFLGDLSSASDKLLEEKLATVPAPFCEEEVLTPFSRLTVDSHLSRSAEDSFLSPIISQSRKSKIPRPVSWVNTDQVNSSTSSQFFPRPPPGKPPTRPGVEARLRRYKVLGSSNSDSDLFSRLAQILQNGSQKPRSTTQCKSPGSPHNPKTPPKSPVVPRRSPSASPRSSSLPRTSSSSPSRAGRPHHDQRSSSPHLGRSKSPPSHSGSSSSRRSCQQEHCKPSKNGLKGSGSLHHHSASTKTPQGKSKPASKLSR", "test": "Kinase Profiler", "format": "biochemical", "experimental": "as §1"}, "[8]": {"target": "EGFR(T790M,L858R)(h) (Homo sapiens, UniProt P00533, L858R/T790M)", "test": "Kinase Profiler", "format": "biochemical", "experimental": "as §1"}, "[9]": {"target": "PRKG2(h) (Homo sapiens, UniProt Q13237)", "test": "Kinase Profiler", "format": "biochemical", "experimental": "as §2"}, "[10]": {"target": "GSK3β(h) (Homo sapiens, UniProt P49841)", "test": "Kinase Profiler", "format": "biochemical", "experimental": "as §2"}, "[11]": {"target": "PDGFRα(V561D)(h) (Homo sapiens, UniProt P16234, V561D)", "test": "Kinase Profiler", "format": "biochemical", "experimental": "as §1"}, "[12]": {"target": "DCAMKL1(h) (Homo sapiens, UniProt O15075)", "test": "Kinase Profiler", "format": "biochemical", "experimental": "as §2"}, "[13]": {"target": "CDK18/cyclinY(h) (Homo sapiens, UniProt Q07002)", "test": "Kinase Profiler", "format": "biochemical", "experimental": "as §1"}, "[14]": {"target": "MuSK(h) (Homo sapiens, UniProt O15146)", "test": "Kinase Profiler", "format": "biochemical", "experimental": "as §1"}, "[15]": {"target": "Abl(Y253F)(h) (Homo sapiens, UniProt P00519, Y253F)", "test": "Kinase Profiler", "format": "biochemical", "experimental": "as §1"}, "[16]": {"target": "cKit(V560G)(h) (Homo sapiens, UniProt P10721, V560G)", "test": "Kinase Profiler", "format": "biochemical", "experimental": "as §2"}, "[17]": {"target": "NDR2(h) (Homo sapiens, UniProt Q9Y2H1)", "test": "Kinase Profiler", "format": "biochemical", "experimental": "as §1"}, "[18]": {"target": "RIPK2(h) (Homo sapiens, UniProt O43353)", "test": "Kinase Profiler", "format": "biochemical", "experimental": "as §1"}, "[19]": {"target": "CaMKIV(h) (Homo sapiens, UniProt Q16566)", "test": "Kinase Profiler", "format": "biochemical", "experimental": "as §1"}, "[20]": {"system": "Calcium Channel L-Type, Benzothiazepine", "test": "Safety screen", "format": "binding, rat"}, "[21]": {"target": "CDK14/cyclinY(h) (Homo sapiens, UniProt O94921)", "test": "Kinase Profiler", "format": "biochemical", "experimental": "as §2"}, "[22]": {"target": "ROCK-II(r) (Rattus norvegicus, UniProt Q62868)", "test": "Kinase Profiler", "format": "biochemical", "experimental": "as §2"}, "[23]": {"target": "OSR1(h) (Homo sapiens, UniProt O95747)", "test": "Kinase Profiler", "format": "biochemical", "experimental": "as §2"}, "[24]": {"target": "MARK3(h) (Homo sapiens, UniProt P27448)", "sequence (P27448 whole entry)": "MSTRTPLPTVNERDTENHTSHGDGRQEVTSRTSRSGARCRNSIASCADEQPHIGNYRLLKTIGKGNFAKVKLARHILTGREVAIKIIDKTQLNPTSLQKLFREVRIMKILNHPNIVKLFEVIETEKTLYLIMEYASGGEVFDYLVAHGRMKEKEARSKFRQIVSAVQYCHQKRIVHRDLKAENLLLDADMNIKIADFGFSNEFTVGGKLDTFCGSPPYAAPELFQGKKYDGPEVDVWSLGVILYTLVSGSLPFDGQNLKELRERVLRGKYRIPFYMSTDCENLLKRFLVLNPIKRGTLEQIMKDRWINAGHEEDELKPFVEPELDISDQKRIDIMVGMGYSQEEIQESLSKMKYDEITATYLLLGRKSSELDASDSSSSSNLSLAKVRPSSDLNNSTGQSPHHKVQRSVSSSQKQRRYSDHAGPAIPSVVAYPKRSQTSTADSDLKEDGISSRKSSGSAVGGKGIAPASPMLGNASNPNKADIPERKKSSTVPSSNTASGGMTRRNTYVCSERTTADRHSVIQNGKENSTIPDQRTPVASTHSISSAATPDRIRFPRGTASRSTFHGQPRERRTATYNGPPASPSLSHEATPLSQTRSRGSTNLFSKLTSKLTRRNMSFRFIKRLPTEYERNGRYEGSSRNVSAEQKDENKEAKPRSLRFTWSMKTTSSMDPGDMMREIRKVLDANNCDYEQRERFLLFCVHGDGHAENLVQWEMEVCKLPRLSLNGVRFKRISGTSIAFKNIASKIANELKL", "test": "Kinase Profiler", "format": "biochemical", "experimental": "as §1"}, "[25]": {"target": "PDHK4(h) (Homo sapiens, UniProt Q16654)", "test": "Kinase Profiler", "format": "biochemical", "experimental": "as §2"}, "[26]": {"target": "TGFBR1(h) (Homo sapiens, UniProt P36897)", "test": "Kinase Profiler", "format": "biochemical", "experimental": "as §2"}, "[27]": {"target": "PKBα(h) (Homo sapiens, UniProt P31749)", "test": "Kinase Profiler", "format": "biochemical", "experimental": "as §1"}, "[28]": {"target": "Endothelin ETA (Homo sapiens, UniProt P25101)", "test": "Safety screen", "format": "binding", "experimental": "(§3) Blood cell counts, kinase profiler, safety screen, bacterial cytotoxicity, Ames, micronucleus assays were performed by the company Eurofins (France)."}, "[29]": {"target": "MEKK3(h) (Homo sapiens, UniProt Q99759)", "sequence (Q99759 whole entry)": "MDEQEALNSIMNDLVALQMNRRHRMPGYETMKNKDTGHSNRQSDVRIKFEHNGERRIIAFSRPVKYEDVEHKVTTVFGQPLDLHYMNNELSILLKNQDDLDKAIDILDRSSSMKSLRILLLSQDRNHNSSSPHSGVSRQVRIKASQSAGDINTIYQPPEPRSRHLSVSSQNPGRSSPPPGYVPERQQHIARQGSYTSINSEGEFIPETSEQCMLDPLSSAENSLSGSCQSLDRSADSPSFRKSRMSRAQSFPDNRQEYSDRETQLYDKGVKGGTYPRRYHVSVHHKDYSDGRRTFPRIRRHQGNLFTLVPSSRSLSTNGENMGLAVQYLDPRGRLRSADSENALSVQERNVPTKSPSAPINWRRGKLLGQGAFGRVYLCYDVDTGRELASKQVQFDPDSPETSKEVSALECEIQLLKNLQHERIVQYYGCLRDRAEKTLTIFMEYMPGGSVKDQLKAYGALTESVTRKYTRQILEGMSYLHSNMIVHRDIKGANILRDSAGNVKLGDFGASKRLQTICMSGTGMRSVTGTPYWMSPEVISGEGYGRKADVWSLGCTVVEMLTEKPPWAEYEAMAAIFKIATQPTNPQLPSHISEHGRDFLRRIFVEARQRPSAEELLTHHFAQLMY", "test": "Kinase Profiler", "format": "biochemical", "experimental": "as §1"}, "[30]": {"target": "Fes(h) (Homo sapiens, UniProt P07332)", "test": "Kinase Profiler", "format": "biochemical", "experimental": "as §1"}, "[31]": {"target": "ROCK-II(h) (Homo sapiens, UniProt O75116)", "test": "Kinase Profiler", "format": "biochemical", "experimental": "as §2"}, "[32]": {"target": "Hck(h) activated (Homo sapiens, UniProt P08631)", "test": "Kinase Profiler", "format": "biochemical", "experimental": "as §1"}, "[33]": {"target": "BIKe(h) (Homo sapiens, UniProt Q9NSY1)", "test": "Kinase Profiler", "format": "biochemical", "experimental": "as §2"}, "[34]": {"target": "Fms(h) (Homo sapiens, UniProt P07333)", "test": "Kinase Profiler", "format": "biochemical", "experimental": "as §1"}, "[35]": {"target": "Src(1-530)(h) (Homo sapiens, UniProt P12931)", "test": "Kinase Profiler", "format": "biochemical", "experimental": "as §1"}, "[36]": {"target": "EphA8(h) (Homo sapiens, UniProt P29322)", "test": "Kinase Profiler", "format": "biochemical", "experimental": "as §2"}, "[37]": {"target": "PDGFRβ(h) (Homo sapiens, UniProt P09619)", "sequence (P09619 33-1106)": "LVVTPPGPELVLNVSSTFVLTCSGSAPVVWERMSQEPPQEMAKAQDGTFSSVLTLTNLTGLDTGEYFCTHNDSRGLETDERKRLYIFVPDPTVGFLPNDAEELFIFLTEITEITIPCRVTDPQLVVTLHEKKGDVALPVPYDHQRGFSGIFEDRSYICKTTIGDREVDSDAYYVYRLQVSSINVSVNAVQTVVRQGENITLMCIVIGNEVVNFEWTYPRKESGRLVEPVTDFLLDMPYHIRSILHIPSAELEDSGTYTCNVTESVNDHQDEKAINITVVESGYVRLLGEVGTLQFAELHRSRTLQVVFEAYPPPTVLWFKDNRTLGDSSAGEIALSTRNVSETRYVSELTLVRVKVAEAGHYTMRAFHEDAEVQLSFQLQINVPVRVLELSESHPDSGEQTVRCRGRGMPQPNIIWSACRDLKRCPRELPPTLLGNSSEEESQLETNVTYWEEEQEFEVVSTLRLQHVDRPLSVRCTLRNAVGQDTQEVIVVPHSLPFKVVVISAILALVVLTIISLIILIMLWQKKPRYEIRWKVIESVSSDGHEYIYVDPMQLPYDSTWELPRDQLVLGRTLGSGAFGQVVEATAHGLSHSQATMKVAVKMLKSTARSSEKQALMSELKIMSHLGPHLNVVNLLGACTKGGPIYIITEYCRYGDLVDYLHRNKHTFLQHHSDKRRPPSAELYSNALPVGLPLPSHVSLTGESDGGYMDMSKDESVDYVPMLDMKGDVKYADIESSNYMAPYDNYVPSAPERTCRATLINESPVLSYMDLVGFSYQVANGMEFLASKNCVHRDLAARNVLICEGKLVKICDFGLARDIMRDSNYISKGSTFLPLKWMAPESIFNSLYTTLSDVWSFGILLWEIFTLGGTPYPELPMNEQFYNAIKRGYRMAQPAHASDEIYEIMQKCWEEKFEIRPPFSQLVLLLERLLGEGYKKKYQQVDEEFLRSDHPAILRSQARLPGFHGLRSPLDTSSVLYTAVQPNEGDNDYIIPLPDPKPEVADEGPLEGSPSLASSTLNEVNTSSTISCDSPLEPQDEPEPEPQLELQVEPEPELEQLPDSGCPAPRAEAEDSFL", "test": "Kinase Profiler", "format": "biochemical", "experimental": "as §1"}, "[38]": {"target": "TSSK3(h) (Homo sapiens, UniProt Q96PN8)", "test": "Kinase Profiler", "format": "biochemical", "experimental": "as §1"}, "[39]": {"system": "Phosphodiesterase PDE3", "test": "Safety screen", "format": "biochemical, human", "experimental": "as §3"}, "[40]": {"target": "GCN2(h) (Homo sapiens, UniProt Q9P2K8)", "test": "Kinase Profiler", "format": "biochemical", "experimental": "as §2"}, "[41]": {"target": "MEKK2(h) (Homo sapiens, UniProt Q9Y2U5)", "sequence (Q9Y2U5 whole entry)": "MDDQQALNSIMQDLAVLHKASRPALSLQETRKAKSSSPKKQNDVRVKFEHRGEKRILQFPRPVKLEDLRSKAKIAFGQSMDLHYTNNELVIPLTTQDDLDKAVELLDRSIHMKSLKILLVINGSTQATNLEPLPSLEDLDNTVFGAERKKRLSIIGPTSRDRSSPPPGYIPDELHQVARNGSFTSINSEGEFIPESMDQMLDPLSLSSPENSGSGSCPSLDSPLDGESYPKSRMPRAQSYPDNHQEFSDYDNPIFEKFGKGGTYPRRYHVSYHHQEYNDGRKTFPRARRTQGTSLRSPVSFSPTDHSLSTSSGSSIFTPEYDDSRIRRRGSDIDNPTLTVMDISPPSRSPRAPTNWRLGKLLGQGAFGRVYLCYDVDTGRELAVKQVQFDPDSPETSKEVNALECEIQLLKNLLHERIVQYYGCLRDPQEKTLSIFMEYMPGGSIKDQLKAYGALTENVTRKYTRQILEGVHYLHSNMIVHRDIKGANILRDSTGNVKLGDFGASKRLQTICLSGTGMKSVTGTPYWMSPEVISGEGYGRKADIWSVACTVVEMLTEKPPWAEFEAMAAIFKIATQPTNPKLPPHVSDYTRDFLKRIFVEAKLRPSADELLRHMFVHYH", "test": "Kinase Profiler", "format": "biochemical", "experimental": "as §1"}}, "data": [{"molecule": "COc1ccc(OC)c(NS(=O)(=O)c2ccc(NC(=O)CCSc3ccc(C)cc3)cc2)c1", "note": "[Compound A41]", "values": [{"measurement": "% inh.", "setting": "[1]", "value": 14, "unit": "%"}, {"measurement": "% inh.", "setting": "[2]", "value": -14, "unit": "%"}, {"measurement": "Activity(%)", "setting": "[3]", "value": 107, "unit": "%"}, {"measurement": "Activity(%)", "setting": "[4]", "value": 98, "unit": "%"}, {"measurement": "Activity(%)", "setting": "[5]", "value": 118, "unit": "%"}, {"measurement": "Activity(%)", "setting": "[6]", "value": 104, "unit": "%"}, {"measurement": "Activity(%)", "setting": "[7]", "value": 106, "unit": "%"}, {"measurement": "Activity(%)", "setting": "[8]", "value": 104, "unit": "%"}, {"measurement": "Activity(%)", "setting": "[9]", "value": 123, "unit": "%"}, {"measurement": "Activity(%)", "setting": "[10]", "value": 90, "unit": "%"}, {"measurement": "Activity(%)", "setting": "[11]", "value": 119, "unit": "%"}, {"measurement": "Activity(%)", "setting": "[12]", "value": 99, "unit": "%"}, {"measurement": "Activity(%)", "setting": "[13]", "value": 101, "unit": "%"}, {"measurement": "Activity(%)", "setting": "[14]", "value": 112, "unit": "%"}, {"measurement": "Activity(%)", "setting": "[15]", "value": 102, "unit": "%"}, {"measurement": "Activity(%)", "setting": "[16]", "value": 115, "unit": "%"}, {"measurement": "Activity(%)", "setting": "[17]", "value": 112, "unit": "%"}, {"measurement": "Activity(%)", "setting": "[18]", "value": 94, "unit": "%"}, {"measurement": "Activity(%)", "setting": "[19]", "value": 114, "unit": "%"}, {"measurement": "% inh.", "setting": "[20]", "value": 46, "unit": "%"}, {"measurement": "Activity(%)", "setting": "[21]", "value": 89, "unit": "%"}, {"measurement": "Activity(%)", "setting": "[22]", "value": 110, "unit": "%"}, {"measurement": "Activity(%)", "setting": "[23]", "value": 103, "unit": "%"}, {"measurement": "Activity(%)", "setting": "[24]", "value": 98, "unit": "%"}, {"measurement": "Activity(%)", "setting": "[25]", "value": 93, "unit": "%"}, {"measurement": "Activity(%)", "setting": "[26]", "value": 103, "unit": "%"}, {"measurement": "Activity(%)", "setting": "[27]", "value": 108, "unit": "%"}, {"measurement": "% inh.", "setting": "[28]", "value": -8, "unit": "%"}, {"measurement": "Activity(%)", "setting": "[29]", "value": 109, "unit": "%"}, {"measurement": "Activity(%)", "setting": "[30]", "value": 116, "unit": "%"}, {"measurement": "Activity(%)", "setting": "[31]", "value": 93, "unit": "%"}, {"measurement": "Activity(%)", "setting": "[32]", "value": 102, "unit": "%"}, {"measurement": "Activity(%)", "setting": "[33]", "value": 112, "unit": "%"}, {"measurement": "Activity(%)", "setting": "[34]", "value": 112, "unit": "%"}, {"measurement": "Activity(%)", "setting": "[35]", "value": 105, "unit": "%"}, {"measurement": "Activity(%)", "setting": "[36]", "value": 112, "unit": "%"}, {"measurement": "Activity(%)", "setting": "[37]", "value": 82, "unit": "%"}, {"measurement": "Activity(%)", "setting": "[38]", "value": 104, "unit": "%"}, {"measurement": "% inh.", "setting": "[39]", "value": 9, "unit": "%"}, {"measurement": "Activity(%)", "setting": "[40]", "value": 101, "unit": "%"}, {"measurement": "Activity(%)", "setting": "[41]", "value": 102, "unit": "%"}]}]}
